In ChEMBL document CHEMBL1140275, “Discovery of a novel and potent series of dianilinopyrimidineurea and urea isostere inhibitors of VEGFR2 tyrosine kinase” (Bioorg Med Chem Lett, 2005):

Experiments:
[1] = target: Vascular endothelial growth factor receptor 2 (Homo sapiens, UniProt P35968); test: Inhibitory concentration against human VEGFR2 kinase
HUVEC = test: Inhibitory concentration against human umbilical vein endothelial cells (HUVECs) induced by VEGF; type: functional, cell-based

Chain of Vascular endothelial growth factor receptor 2 (P35968 whole entry): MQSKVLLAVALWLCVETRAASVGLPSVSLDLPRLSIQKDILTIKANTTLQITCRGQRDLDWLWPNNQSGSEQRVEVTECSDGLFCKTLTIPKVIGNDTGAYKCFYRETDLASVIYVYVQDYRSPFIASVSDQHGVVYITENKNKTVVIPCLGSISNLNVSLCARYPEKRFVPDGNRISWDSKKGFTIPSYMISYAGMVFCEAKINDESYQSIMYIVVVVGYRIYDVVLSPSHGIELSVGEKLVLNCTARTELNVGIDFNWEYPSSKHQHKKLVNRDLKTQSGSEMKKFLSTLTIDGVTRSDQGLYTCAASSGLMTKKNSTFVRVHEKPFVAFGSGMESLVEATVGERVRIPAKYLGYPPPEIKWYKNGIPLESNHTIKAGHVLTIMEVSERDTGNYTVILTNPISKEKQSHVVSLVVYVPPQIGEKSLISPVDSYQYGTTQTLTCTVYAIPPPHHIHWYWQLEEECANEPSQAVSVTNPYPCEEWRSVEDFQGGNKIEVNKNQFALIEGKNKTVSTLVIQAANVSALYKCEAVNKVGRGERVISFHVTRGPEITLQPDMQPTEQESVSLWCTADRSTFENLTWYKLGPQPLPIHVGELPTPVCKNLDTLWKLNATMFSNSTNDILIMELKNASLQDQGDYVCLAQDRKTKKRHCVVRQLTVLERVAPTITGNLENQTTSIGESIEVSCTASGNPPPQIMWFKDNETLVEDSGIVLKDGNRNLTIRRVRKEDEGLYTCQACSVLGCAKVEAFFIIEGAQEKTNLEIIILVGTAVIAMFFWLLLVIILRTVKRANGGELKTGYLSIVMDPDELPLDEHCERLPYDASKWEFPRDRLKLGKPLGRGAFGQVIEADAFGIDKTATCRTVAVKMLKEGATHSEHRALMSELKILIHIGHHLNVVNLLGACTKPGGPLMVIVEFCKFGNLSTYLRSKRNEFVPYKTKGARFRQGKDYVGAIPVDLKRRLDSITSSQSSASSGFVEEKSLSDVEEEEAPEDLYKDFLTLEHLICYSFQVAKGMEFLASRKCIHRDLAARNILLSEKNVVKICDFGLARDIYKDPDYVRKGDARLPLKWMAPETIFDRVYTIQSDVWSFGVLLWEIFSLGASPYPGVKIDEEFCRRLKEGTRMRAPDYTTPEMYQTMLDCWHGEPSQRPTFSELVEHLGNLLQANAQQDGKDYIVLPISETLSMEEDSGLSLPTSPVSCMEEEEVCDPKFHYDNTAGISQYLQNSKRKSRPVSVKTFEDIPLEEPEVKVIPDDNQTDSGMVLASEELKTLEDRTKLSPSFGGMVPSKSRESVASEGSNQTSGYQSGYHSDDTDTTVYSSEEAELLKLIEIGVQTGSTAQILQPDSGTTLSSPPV

Structure (SMILES)	IC50 [1] [µM]	IC50 (HUVEC) [µM]
CN(c1ccc(NC(=O)NCCN2CCOCC2)cc1)c1ccnc(Nc2ccc(CS(C)(=O)=O)cc2)n1	0.99	0.471
CN(c1ccc(NC(=O)Nc2ccccc2)cc1)c1ccnc(Nc2cccc(CS(C)(=O)=O)c2)n1		0.0002
CN(c1ccc(NC(=O)Nc2ccccc2)cc1)c1ccnc(Nc2cccc(S(N)(=O)=O)c2)n1		0.002
CN(c1ccc(NC(=O)NC2CCCC2)cc1)c1ccnc(Nc2cccc(CS(C)(=O)=O)c2)n1	0.031	0.001
CCNC(=O)Nc1ccc(N(C)c2ccnc(Nc3ccc(CS(C)(=O)=O)cc3)n2)cc1	0.026	0.027
CN(C)CCNC(=O)Nc1ccc(N(C)c2ccnc(Nc3cccc(CS(C)(=O)=O)c3)n2)cc1	0.681	0.53
CN(c1ccc(NC(=O)Oc2ccccc2)cc1)c1ccnc(Nc2cccc(CS(C)(=O)=O)c2)n1		0.224
CN(c1ccc(NC(=N)Nc2ccccc2)cc1)c1ccnc(Nc2cccc(CS(C)(=O)=O)c2)n1		0.596
CN(c1ccc(NS(=O)(=O)Cc2ccccc2)cc1)c1ccnc(Nc2cccc(CS(C)(=O)=O)c2)n1		0.35
CN1CCN(C(=O)c2ccc(NC(=O)Nc3ccc(N(C)c4ccnc(Nc5ccc(CS(C)(=O)=O)cc5)n4)cc3)cc2)CC1	0.15	0.516
CCCCNC(=O)Nc1ccc(N(C)c2ccnc(Nc3cccc(CS(C)(=O)=O)c3)n2)cc1	0.029	0.002
CN(C)CCNC(=O)Nc1ccc(N(C)c2ccnc(Nc3ccc(CS(C)(=O)=O)cc3)n2)cc1	3.11	2.98
CN(c1ccc(NC(=O)Cc2ccccc2)cc1)c1ccnc(Nc2cccc(CS(C)(=O)=O)c2)n1		0.049
CN(c1ccc(NC(=O)N2CCN(CCCN3CCOCC3)CC2)cc1)c1ccnc(Nc2ccc(CS(C)(=O)=O)cc2)n1	4.49	0.85
CN(c1ccc(N/C(S)=N/c2ccccc2)cc1)c1ccnc(Nc2cccc(CS(C)(=O)=O)c2)n1		0.006

The next lines start with results.

IC50 [1] [µM]	Structure (SMILES)	IC50 (HUVEC) [µM]
0.011	CN(c1ccc(NC(=O)NCCc2ccccc2)cc1)c1ccnc(Nc2cccc(CS(C)(=O)=O)c2)n1	0.01
0.001	CN(c1ccc(NC(=O)Nc2cc(C(F)(F)F)ccc2F)cc1)c1ccnc(Nc2cccc(S(N)(=O)=O)c2)n1	0.01
0.001	CN(c1ccc(NC(=O)Nc2cc(C(F)(F)F)ccc2F)cc1)c1ccnc(Nc2ccc(S(N)(=O)=O)cc2)n1	0.008
0.002	CN(c1ccc(NC(=O)Nc2ccc(OC(F)(F)F)cc2)cc1)c1ccnc(Nc2cccc(S(N)(=O)=O)c2)n1 [GW806742X]	0.005
0.002	CN(c1ccc(NC(=O)Nc2ccc(OC(F)(F)F)cc2)cc1)c1ccnc(Nc2ccc(S(N)(=O)=O)cc2)n1	0.037
0.065	CN(c1ccc(NC(=O)Nc2c(Cl)cccc2Cl)cc1)c1ccnc(Nc2cccc(CS(C)(=O)=O)c2)n1 [GW809897X]	0.029
0.006	CN(c1ccc(NC(=O)Nc2ccc(OC(F)(F)F)cc2)cc1)c1ccnc(Nc2cccc(CS(C)(=O)=O)c2)n1	0.007
0.002	CN(c1ccc(NC(=O)Nc2cc(C(F)(F)F)ccc2F)cc1)c1ccnc(Nc2ccc(CS(C)(=O)=O)cc2)n1	0.002
0.004	CN1CCN(Cc2ccc(NC(=O)Nc3ccc(N(C)c4ccnc(Nc5ccc(CS(C)(=O)=O)cc5)n4)cc3)cc2)CC1	0.002
0.017	CCNC(=O)Nc1ccc(N(C)c2ccnc(Nc3cccc(CS(C)(=O)=O)c3)n2)cc1	0.003
0.035	CN(c1ccc(NC(=O)Nc2cc(C(F)(F)F)ccc2F)cc1)c1ccnc(Nc2cccc(CS(C)(=O)=O)c2)n1	0.007
0.003	CC(=O)c1ccc(NC(=O)Nc2ccc(N(C)c3ccnc(Nc4cccc(CS(C)(=O)=O)c4)n3)cc2)cc1	0.002
